pIC50: −log10 of the molar value. Like-named read-outs stand apart in the source and are kept apart here.

As a reminder, the pIC50 is the IC50 on a negative log10 scale, so that one unit is a factor of ten.

Assay [1] concerns the target recombinant human Myt1 (full length PKMYT1) (Homo sapiens (Human), UniProt Q99640). Description: Recombinant human Myt1 kinase assay (ADP-Glo). In kind it is biochemical. The settings on record: 10 μM ATP. The method, boiled down:
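ADP-Glo luminescence measured ATP hydrolysis by recombinant full-length PKMYT1 (18 nM) after 60 min at 30 °C with 10 μM ATP. Compounds in 0.5% DMSO were added to the enzyme 15 min before ATP, at 22 °C, in HEPES/MgCl2/MnCl2 buffer. IC50 and percent maximal inhibition were derived.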
In general terms: ADP-Glo turns the ADP formed in a reaction into a luminescent signal.

Assay [2] relates to PKMYT1 (CDK1 pThr14) in FUOV1 cells. Description: PKMYT1 cell-based activity assay, CDK1 pThr14 AlphaLISA in FUOV1 cells. The settings on record: read-out: FUOV-1 CDK1 pThr14 IC50. In outline:
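IC50 was derived from AlphaLISA signal (excitation 680 nm, emission 615 nm) for phospho-Thr14 CDK1 in lysates. The detection antibodies were rabbit anti-pThr14 and mouse anti-total CDK1, each at 5 nM. FUOV1 ovarian cells were exposed to compound for 2 hours before lysis.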

Chain of recombinant human Myt1 (full length PKMYT1) (Q99640 whole entry): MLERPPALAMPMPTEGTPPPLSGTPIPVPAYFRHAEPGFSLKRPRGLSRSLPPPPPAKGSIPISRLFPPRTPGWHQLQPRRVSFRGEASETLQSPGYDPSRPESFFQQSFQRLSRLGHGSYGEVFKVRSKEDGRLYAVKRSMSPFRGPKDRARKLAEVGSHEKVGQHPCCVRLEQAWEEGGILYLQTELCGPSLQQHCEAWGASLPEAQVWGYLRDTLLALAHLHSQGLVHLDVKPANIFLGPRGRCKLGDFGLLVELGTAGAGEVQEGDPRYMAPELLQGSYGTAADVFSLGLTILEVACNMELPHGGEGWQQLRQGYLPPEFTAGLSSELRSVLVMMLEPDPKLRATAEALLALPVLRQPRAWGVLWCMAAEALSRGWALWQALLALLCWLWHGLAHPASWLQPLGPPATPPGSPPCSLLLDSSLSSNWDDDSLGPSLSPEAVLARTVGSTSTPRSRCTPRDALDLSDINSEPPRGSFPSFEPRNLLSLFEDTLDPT

With `Cc1ccc2[nH]ncc2c1-c1cc(-c2ccnc(OCCc3ncc[nH]3)n2)nc(C(N)=O)c1N` [Compound 240], the pIC50 in assay [1] was 8.10; in assay [2] (2 h, 2 h incubation), 6.00.

Consider `Cc1ccc2[nH]ncc2c1-c1cc(-c2cccc(F)n2)nc(C(N)=O)c1N` [Compound 241], for which the pIC50 in assay [1] is 8.00; in assay [2] (2 h, 2 h incubation), 5.71.

Consider `Cc1ccc2[nH]ncc2c1-c1cc(-c2cccc(OCc3cccnn3)n2)nc(C(N)=O)c1N` [Compound 242], for which the pIC50 in assay [1] was 8.15; in assay [2] (2 h, 2 h incubation) it was 6.61.

Consider `Cc1ccc2[nH]ncc2c1-c1cc(-c2cccc(OCc3ccncn3)n2)nc(C(N)=O)c1N` [Compound 244], for which the pIC50 is 7.96 in assay [1] and 6.71 in assay [2] (2 h, 2 h incubation).

For the compound `COCCOc1cccc(-c2cc(-c3c(C)ccc4[nH]ncc34)c(N)c(C(N)=O)n2)n1` [Compound 245], the pIC50 was 8.00 in assay [1] and 6.27 in assay [2] (2 h, 2 h incubation).

`Cc1ccc2[nH]ncc2c1-c1cc(-c2cccc(OCc3nccn3C)n2)nc(C(N)=O)c1N` [Compound 249]: the pIC50 in assay [1] is 8.30; in assay [2] (2 h, 2 h incubation), 7.07.

For the compound `Cc1ccc2[nH]ncc2c1-c1cc(-c2cccc(OCc3cnccn3)n2)nc(C(N)=O)c1N` [Compound 250], the pIC50 in assay [1] is 8.10; in assay [2] (2 h, 2 h incubation), 6.12.

Regarding `Cc1ccc2[nH]ncc2c1-c1cc(-c2ccnc(OCc3ncccn3)n2)nc(C(N)=O)c1N` [Compound 251], the results for the pIC50 in assay [1] and in assay [2] (2 h incubation) were 8.52 and 7.34, respectively.

Regarding `Cc1ccc2[nH]ncc2c1-c1cc(-c2cccc(O[C@H](C)c3ncccn3)n2)nc(C(N)=O)c1N` [Compound 254], the pIC50 in assay [1] is 8.30; in assay [2] (2 h, 2 h incubation) it was 6.69.

Consider `Cc1ccc2[nH]ncc2c1-c1cc(-c2cccc(OC3(c4ncccn4)COC3)n2)nc(C(N)=O)c1N` [Compound 256], for which the pIC50 was 7.68 in assay [1] and 6.88 in assay [2] (2 h, 2 h incubation).

Take `Cc1ccc2[nH]ncc2c1-c1cc(-c2cc(Cl)ccn2)nc(C(N)=O)c1N` [Compound 257]: the pIC50 is 7.92 in assay [1] and 5.93 in assay [2] (2 h, 2 h incubation).

Consider `Cc1ccc2[nH]ncc2c1-c1cc(-c2cccc(OCc3nccs3)n2)nc(C(N)=O)c1N` [Compound 261], for which the pIC50 in assay [1] was 8.22; in assay [2] (2 h, 2 h incubation), 6.26.

As for `Cc1ccc2[nH]ncc2c1-c1cc(-c2cccc(OCc3cncnc3)n2)nc(C(N)=O)c1N` [Compound 262], the pIC50 was 8.15 in assay [1] and 6.29 in assay [2] (2 h, 2 h incubation).

Regarding `Cc1ccc2[nH]ncc2c1-c1cc(-c2ccnc(OCCc3cc[nH]n3)n2)nc(C(N)=O)c1N` [Compound 265], the pIC50 in assay [1] was 8.40; in assay [2] (2 h, 2 h incubation), 6.41.

Regarding `Cc1ccc2[nH]ncc2c1-c1cc(-c2cccc(OCc3ncco3)n2)nc(C(N)=O)c1N` [Compound 267], the pIC50 in assay [1] was 8.40; in assay [2] (2 h incubation), 6.72.

On to `Cc1ccc2[nH]ncc2c1-c1cc(-c2cccc(OCC3COC3)n2)nc(C(N)=O)c1N` [Compound 268], for which the pIC50 in assay [1] is 8.05; in assay [2] (2 h, 2 h incubation), 6.58.

As for `Cc1ccc2[nH]ncc2c1-c1cc(-c2cccc(N[C@H](CO)c3ccccc3)n2)nc(C(N)=O)c1N` [Compound 274], the pIC50 is 8.52 in assay [1] and 6.87 in assay [2] (2 h, 2 h incubation).

For the compound `Cc1ccc2[nH]ncc2c1-c1cc(-c2cccc(OC[C@H](N)c3ccccc3)n2)nc(C(N)=O)c1N` [Compound 276], the pIC50 in assay [1] was 8.70; in assay [2] (2 h incubation), 7.96.

Consider `Cc1ccc2[nH]ncc2c1-c1cc(-c2cccc(OCc3cscn3)n2)nc(C(N)=O)c1N` [Compound 278], for which the negative logarithm of the IC50 (pIC50) in assay [1] was 8.30; in assay [2] (2 h, 2 h incubation) it was 6.80.

As for `Cc1ccc2[nH]ncc2c1-c1nc(-c2cccc(OCC#N)c2)nc(C(N)=O)c1N` [Compound 288], the negative logarithm of the IC50 (pIC50) in assay [1] was 8.10; in assay [2] (2 h, 2 h incubation), 6.19.

As for `Cc1nnc(-c2cccc(-c3nc(C(N)=O)c(N)c(-c4c(C)ccc5[nH]ncc45)n3)c2)o1` [Compound 290], the pIC50 is 8.22 in assay [1] and 6.78 in assay [2] (2 h, 2 h incubation).

With `Cc1ccc2[nH]ncc2c1-c1nc(-c2ccc3c(c2)OCO3)nc(C(N)=O)c1N` [Compound 297], the pIC50 is 8.05 in assay [1] and 6.37 in assay [2] (2 h, 2 h incubation).

Turning to `Cc1ccc2[nH]ncc2c1-c1cc(-c2ccnc(OCCO)n2)nc(C(N)=O)c1N` [Compound 299], the pIC50 in assay [1] is 7.89; in assay [2] (2 h, 2 h incubation), 6.63.

Consider `CCC(COc1nccc(-c2cc(-c3c(C)ccc4[nH]ncc34)c(N)c(C(N)=O)n2)n1)OC` (centres unmarked) [Compound 302], for which the pIC50 was 8.40 in assay [1] and 7.64 in assay [2] (2 h, 2 h incubation).

`COC(C)COc1nccc(-c2cc(-c3c(C)ccc4[nH]ncc34)c(N)c(C(N)=O)n2)n1` (centres unmarked) [Compound 303]: the pIC50 in assay [1] was 8.15; in assay [2] (2 h, 2 h incubation), 6.81.

`Cc1ccc2[nH]ncc2c1-c1cc(-c2cccc(OC3CCCOC3)n2)nc(C(N)=O)c1N` (centres unmarked) [Compound 306]: the pIC50 is 8.15 in assay [1] and 6.35 in assay [2] (2 h, 2 h incubation).

`Cc1ccc2[nH]ncc2c1-c1cc(-c2ccnc(OCCc3ccn(C)n3)n2)nc(C(N)=O)c1N` [Compound 312]: the pIC50 is 8.05 in assay [1] and 6.22 in assay [2] (2 h, 2 h incubation).

With `Cc1ccc2[nH]ncc2c1-c1cc(-c2ccnc(OCCc3nccs3)n2)nc(C(N)=O)c1N` [Compound 313], the pIC50 in assay [1] was 8.22; in assay [2] (2 h, 2 h incubation) it was 6.86.

On to `Cc1ccc2[nH]ncc2c1-c1cc(-c2ccnc(OCCn3ccnc3)n2)nc(C(N)=O)c1N` [Compound 315], for which the pIC50 in assay [1] is 8.05; in assay [2] (2 h, 2 h incubation), 6.46.

As for `CC(=O)Nc1ccccc1-c1nc(C(N)=O)c(N)c(-c2c(C)ccc3[nH]ncc23)n1` [Compound 320], the pIC50 in assay [1] is 8.22; in assay [2] (2 h, 2 h incubation), 7.72.

In the case of `Cc1ccc2[nH]ncc2c1-c1cc(-c2cccc(N[C@H]3C[C@H](O)C3)n2)nc(C(N)=O)c1N` [Compound 322], the pIC50 in assay [1] was 8.00; in assay [2] (2 h, 2 h incubation) it was 6.79.

As for `Cc1ccc2[nH]ncc2c1-c1nc(-c2cccc3cn[nH]c23)nc(C(N)=O)c1N` [Compound 323], the pIC50 in assay [1] was 8.22; in assay [2] (2 h, 2 h incubation), 6.97.

Consider `Cc1ccc2[nH]ncc2c1-c1cc(-c2cccc(OCc3ccnnc3)n2)nc(C(N)=O)c1N` [Compound 326], for which the pIC50 was 8.30 in assay [1] and 6.87 in assay [2] (2 h, 2 h incubation).

For `COC(C)(C)COc1nccc(-c2cc(-c3c(C)ccc4[nH]ncc34)c(N)c(C(N)=O)n2)n1` [Compound 327], the pIC50 in assay [1] is 8.22; in assay [2] (2 h, 2 h incubation) it was 6.45.

Consider `COCC(=O)Nc1ccccc1-c1nc(C(N)=O)c(N)c(-c2c(C)ccc3[nH]ncc23)n1` [Compound 332, 5-amino-2-(2-(2-methoxyacetamido)phenyl)-6-(5-methyl-1H-indazol-4-yl)pyrimidine-4-carboxamide], for which the pIC50 is 8.22 in assay [1] and 7.25 in assay [2] (2 h, 2 h incubation).

In the case of `Cc1ccc2[nH]ncc2c1-c1cc(-c2ccnc(OC[C@H](N)c3ccccc3)n2)nc(C(N)=O)c1N` [Compound 342], the pIC50 was 8.52 in assay [1] and 8.22 in assay [2] (2 h, 2 h incubation).

For the compound `COC(COc1cccc(-c2cc(-c3c(C)ccc4[nH]ncc34)c(N)c(C(N)=O)n2)n1)C1CC1` (centres unmarked) [Compound 344], the pIC50 in assay [1] was 8.15; in assay [2] (2 h, 2 h incubation), 6.01.

For `Cc1ccc2[nH]ncc2c1-c1cc(-c2cccc(OCC3(N)CC3)n2)nc(C(N)=O)c1N` [Compound 353], the negative logarithm of the IC50 (pIC50) in assay [1] is 8.15; in assay [2] (2 h, 2 h incubation), 7.70.

As for `CNc1ccccc1-c1nc(C(N)=O)c(N)c(-c2c(C)ccc3[nH]ncc23)n1` [Compound 365], the pIC50 is 7.55 in assay [1] and 6.11 in assay [2] (2 h, 2 h incubation).

Turning to `Cc1ccc2[nH]ncc2c1-c1nc(-c2ccccc2NC(=O)C(C)(C)C)nc(C(N)=O)c1N` [Compound 377], the pIC50 in assay [1] is 8.52; in assay [2] (2 h, 2 h incubation), 7.68.

For the compound `Cc1ccc2[nH]ncc2c1-c1nc(-c2cccc3ncsc23)nc(C(N)=O)c1N` [Compound 380], the pIC50 was 8.22 in assay [1] and 6.11 in assay [2] (2 h, 2 h incubation).

For `Cc1ccc2[nH]ncc2c1-c1nc(-c2ccccc2NC(C)C(F)(F)F)nc(C(N)=O)c1N` (centres unmarked) [Compound 381, 5-amino-6-(5-methyl-1H-indazol-4-yl)-2-(2-((1,1,1-trifluoropropan-2-yl)amino)phenyl)pyrimidine-4-carboxamide], the negative-log IC50 (pIC50) in assay [1] is 7.96; in assay [2] (2 h, 2 h incubation), 7.89.

Turning to `Cc1ccc2[nH]ncc2c1-c1nc(-c2cccc3c2NC(=O)C3)nc(C(N)=O)c1N` [Compound 385], the pIC50 is 8.30 in assay [1] and 6.54 in assay [2] (2 h, 2 h incubation).

Turning to `Cc1nc2cccc(-c3nc(C(N)=O)c(N)c(-c4c(C)ccc5[nH]ncc45)n3)c2s1` [Compound 389], the pIC50 in assay [1] is 8.10; in assay [2] (2 h, 2 h incubation), 6.36.

Take `COC(COc1nccc(-c2cc(-c3c(C)ccc4[nH]ncc34)c(N)c(C(N)=O)n2)n1)C1CC1` (centres unmarked) [Compound 391]: the pIC50 is 8.30 in assay [1] and 7.25 in assay [2] (2 h, 2 h incubation).

In the case of `Cc1ccc2[nH]ncc2c1-c1nc(-c2cc(F)cc3c2NC(=O)C3)nc(C(N)=O)c1N` [Compound 393], the pIC50 in assay [1] was 8.22; in assay [2] (2 h, 2 h incubation), 6.54.

For `Cc1ccc2[nH]ncc2c1-c1nc(-c2cccc3c2NC(=O)C3(F)F)nc(C(N)=O)c1N` [Compound 395], the pIC50 in assay [1] is 7.77; in assay [2] (2 h, 2 h compound incubation) it was 6.11.

For `Cc1ccc2[nH]ncc2c1-c1nc(-c2cccc3cnsc23)nc(C(N)=O)c1N` [Compound 396], the pIC50 in assay [1] was 8.30; in assay [2] (2 h, 2 h compound incubation), 6.82.

Consider `Cc1ccc2[nH]ncc2c1-c1nc(-c2ccccc2NC(=O)C2CC2)nc(C(N)=O)c1N` [Compound 397], for which the pIC50 is 8.40 in assay [1] and 7.89 in assay [2] (2 h, 2 h compound incubation).

These data come from US20250304537A1 (Repare Therapeutics Inc., priority 2022, published 2025).
